The record followed here is patent US20260258050A1, “IMMUNOMODULATOR” (HITGEN INC., priority 2023, published 2026).

Test [1] has as its target T1, Human IL-17AF (Homo sapiens, UniProt Q16552+Q96PD4).
T1 construct: purchased Sino Biological Inc. CT047-H08H
T1 sequence (Q16552 24-155): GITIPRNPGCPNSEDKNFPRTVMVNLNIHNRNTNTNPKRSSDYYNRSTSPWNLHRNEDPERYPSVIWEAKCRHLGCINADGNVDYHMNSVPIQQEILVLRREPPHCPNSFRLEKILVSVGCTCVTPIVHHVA
T1 sequence (Q96PD4 31-163): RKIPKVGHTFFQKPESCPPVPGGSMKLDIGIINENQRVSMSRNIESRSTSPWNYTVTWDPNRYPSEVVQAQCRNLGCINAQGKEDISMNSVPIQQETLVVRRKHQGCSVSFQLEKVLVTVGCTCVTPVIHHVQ
The test is described as follows: IL-17AF ELISA (competitive ELISA, IL-17AF/IL-17Ra receptor-ligand binding). Particulars: human IL-17AF coated plate, human IL-17Ra, read-out: IC50, inhibitory activity of compounds on human IL-17AF. How it is done:
Experiment Example 2 IL-17AF ELISA
The inhibitory effects of human IL-17AF inhibitors on receptor-ligand binding were quantitatively determined by a competitive ELISA.
The ELISA was performed through the following steps.
Human IL-17AF (Sino Biological Inc., Cat #CT047-H08H) was diluted with coating buffer (50 mM PBS, pH 7.4) to reach a concentration of 0.625 μg/ml. 100 μL of the resulting solution was added to each well of a 96-well plate, and the plate was incubated at 37° C. for 30 min. In the blank group, 100 μL of coating buffer was added instead of the IL-17AF solution.
The plate was washed four times with 10 mM PBST (pH 7.4). 200 μL was used per well for each wash. After the final wash, the plate was tapped dry on absorbent paper.
Fresh 5% (w/v) skim milk solution was prepared before the experiment. For example, 5 grams of skim milk powder (Bio-Rad, Cat #170-6404) was completely dissolved in 100 mL of 10 mM PBST. 200 μL of the 5% (w/v) skim milk solution was added to each well, and the plate was incubated on a shaker at 25° C. for 30 min.
(S4) Preparation of 100× to-be-Tested Compound Solutions
During step (S3), the to-be-tested compound solutions were prepared. Each powdered compound was dissolved in dimethyl sulfoxide (DMSO) to reach a stock concentration of 10 mM. The to-be-tested compound solutions were then serially diluted four-fold with DMSO to obtain nine concentrations ranging from […].
(S6) Pre-Incubation of IL-17AF with to-be-Tested Compound Solutions
89 μL of PBST and 1 μL of each of the to-be-tested compound solutions were added to each well and mixed. The plate was pre-incubated at 25° C. for 10 min. In the blank group and the control group, 1 μL of DMSO was added instead of the to-be-tested compound solutions.
(S7) Incubation with Human IL-17Ra
10 μL of 100 nM IL-17Ra (Sino Biological Inc., Cat #10895-H03H) was added to each well, followed by incubation on a shaker at 25° C. for 30 min. The receptor solution was prepared in 10 mM PBST.
(S9) Incubation with Horseradish Peroxidase-Conjugated Antibody
100 μL of mouse anti-Fc tag HRP-conjugated antibody (Sino Biological Inc., Cat #10702-MM01T-H) was added to each well. The plate was incubated on a shaker at 25° C. for 30 min. The antibody was diluted with 5% (w/v) skim milk solution at 1:5,000 (v/v).
100 μL of TMB substrate solution (BD, Cat #555214) was added to each well. Substrate A and substrate B were freshly mixed at a volume ratio of 1:1 before use. The plate was incubated in the dark at 25° C. for 5-15 min.
(S12) Termination and Detection
The color reaction was terminated by addition of 2.5 M HCl. Absorbance was measured at 450 nm using a BMG PHERStar microplate reader.
(S13) Calculation of Half-Maximal Inhibitory Concentration (IC50)
The relative percent residual activity at each compound concentration was calculated according to Equation 1. The IC50 value of each test compound was then calculated in GraphPad 6 using the equation for log(inhibitor) versus normalized response with variable slope, as shown in Equation 2.
relative percent residual activity (%)=[(absorbance of sample−absorbance of blank group)/(absorbance of control group−absorbance of blank group)]%. Equation 1: […]
The compounds prepared in the Examples were tested for IL-17AF inhibitory activity according to the above method.

In test [2] the target is T2, Human IL-17A (Homo sapiens, UniProt Q16552).
T2 sequence (Q16552 20-155 limits assumed): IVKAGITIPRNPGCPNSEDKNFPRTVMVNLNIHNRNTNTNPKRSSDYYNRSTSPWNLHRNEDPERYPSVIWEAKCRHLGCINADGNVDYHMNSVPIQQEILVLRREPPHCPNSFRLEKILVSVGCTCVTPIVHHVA
The test is described as follows: IL-17A enzyme-linked immunosorbent assay (competitive ELISA, IL-17A/IL-17Ra receptor-ligand binding). On the set-up: purchased Sino Biological Inc. 12047-H07B. Particulars: human IL-17A coated plate, human IL-17Ra, read-out: IC50, inhibitory activity of compounds on human IL-17A. The method in brief:
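Competitive ELISA with plates coated with human IL-17A at 0.2 μg/ml, blocked with 5% skim milk. Compound pre-incubated with IL-17A 10 min at 25 °C, then 16 nM IL-17Ra stock added for 30 min. Bound receptor detected by anti-Fc HRP/TMB, A450. IC50 from variable-slope fit of blank-corrected residual activity.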

Test [3] has as its target T2, Human IL-17A. The test is described as follows: Inhibition of human IL-17A protein-induced GROα/CXCL1 production in HT-29 cells. It counts as cell-based. On the set-up: purchased R&D 317-ILB; host or cells: added exogenously to HT-29 cells. To be noted: 30 ng/mL human IL-17A protein, 48 h, GROα in supernatant by ELISA kit, read-out: Inhibitory IC50 of compounds on HT-29 cell GROα/CXCL1. How it is done:
Experiment Example 3 Inhibition of Human IL-17A Protein-Induced GROα/CXCL1 Production in HT-29 Cells by Compounds
This assay was conducted to evaluate the ability of the compounds to inhibit human IL-17A protein-induced production of the chemokine growth-regulated oncogene alpha/C-X-C motif chemokine ligand 1 (GROα/CXCL1) in HT-29 cells.
Human colorectal adenocarcinoma epithelial HT-29 cells (Chengdu Zhongyuan Gongchuang Technology Co., Ltd.) were seeded into a 96-well plate at a density of 5×10^4 cells per well and were cultured overnight in an incubator at 37° C.
30 ng/mL of human IL-17A protein (R&D, #317-ILB) was mixed with gradient concentrations of the IL-17A small-molecule inhibitor, or with […] of a positive control IL-17A antibody (R&D, #AF-317-NA). These mixtures were incubated at 37° C. for 1 h and were then added to the plate. The mixtures were co-incubated with the HT-29 cells at 37° C. for 48 h. Thereafter, the level of GROα in the cell culture supernatant was determined using a GROα ELISA kit (Cisbio, #62HCXC1PEG).
The inhibitory activity of each compound was expressed as the half-maximal inhibitory concentration (IC50) for inhibition of GROα/CXCL1 production in HT-29 cells.

Consider `Cc1[nH]nc2c1-c1ccc(NC(=O)[C@@H](NC(=O)c3ccnn3C)C(C3CC3)C3CC3)cc1CN(C)CC2` [compound 26], for which the IC50 in test [1] fell in the range of 100 to 500 nM; in test [2], 50 to 150 nM.

As for `Cc1[nH]nc2c1-c1cc(F)c(NC(=O)[C@@H](NC(=O)c3ccnn3C)C(C3CC3)C3CC3)cc1CN(C)C(=O)C2` [compound 134], the IC50 lay in the range of 100 to 500 nM in test [1] and 50 to 150 nM in test [2].

On to `Cc1[nH]nc2c1-c1cc(F)c(NC(=O)[C@@H](NC(=O)c3ccnn3C(C)C)C(C3CC3)C3CC3)cc1CN(C(C)C)CC2` [compound 162], for which the results for the IC50 in test [1] and in test [2] were 100 to 500 nM and 50 to 150 nM, respectively.

In the case of `CCc1nocc1C(=O)N[C@H](C(=O)Nc1cc2c(cc1F)-c1c(n[nH]c1C)CCOC2)C(C1CC1)C1CC1` [compound 33], the IC50 in test [1] is at most 100 nM; in test [2], at most 50 nM.

`CCn1nccc1C(=O)N[C@H](C(=O)Nc1ccc2c(c1)COCCc1n[nH]c(C)c1-2)C1c2ccc(F)cc2OCC12CC2` (some centres unmarked) [compound 9]: the IC50 in test [1] is 100 to 500 nM; in test [2] it was at most 50 nM.

For `Cc1[nH]nc2c1-c1cc(F)c(NC(=O)[C@@H](NC(=O)c3ccc(C#N)n3C)C(C3CC3)C3CC3)cc1COCC2` [compound 227], the IC50 in test [1] is 100 to 500 nM; in test [2] it was at most 50 nM.

In the case of `Cc1[nH]nc2c1-c1cc(F)c(NC(=O)[C@@H](NC(=O)c3ccnn3C(C)C)C(C3CC3)C3CC3)cc1CN(C(C)C(F)(F)F)C(=O)C2` (single isomer, unassigned) [compound 186b], the IC50 in test [1] is 100 to 500 nM; in test [2], at most 50 nM.

On to `Cc1[nH]nc2c1-c1cnc(NC(=O)[C@@H](NC(=O)c3ccnn3C(C)C)C(C3CC3)C3CC3)cc1CN(Cc1ccccc1)CC2` [compound 184], for which the IC50 in test [1] lay in the range of 100 to 500 nM.

In the case of `CCn1nccc1C(=O)N[C@H](C(=O)Nc1cc2c(cc1F)-c1c(n[nH]c1C)CC(C)(C)OC2)C(C1CC1)C1CC1` [compound 117], the IC50 in test [1] is 100 to 500 nM; in test [2] it was at most 50 nM.

`Cc1[nH]nc2c1-c1cc(F)c(NC(=O)[C@@H](NC(=O)c3ccnn3CC(C)(C)F)C(C3CC3)C3CC3)cc1COCC2` [compound 82]: the IC50 lay in the range of 100 to 500 nM in test [1] and 50 to 150 nM in test [2].

On to `CCn1nccc1C(=O)N[C@H](C(=O)Nc1cc2c(cc1F)-c1c(n[nH]c1C)CC(C)OC2)C(C1CC1)C1CC1` (single isomer, unassigned) [compound 119b], for which the figures for the IC50 in test [1] and in test [2] were 100 to 500 nM and at most 50 nM, respectively.

Take `Cc1[nH]nc2c1-c1cc(F)c(NC(=O)[C@@H](NC(=O)c3ccnn3C(C)C)C(C3CC3)C3CC3)cc1CN(Cc1ccccc1)CC2` [compound 185]: in test [1], the IC50 lay in the range of 100 to 500 nM.

On to `COCCn1nccc1C(=O)N[C@H](C(=O)Nc1cc2c(cc1F)-c1c(n[nH]c1C)CCOC2)C(C1CC1)C1CC1` [compound 57], for which the IC50 was 100 to 500 nM in test [1] and at most 50 nM in test [2].

As for `CCn1nccc1C(=O)N[C@H](C(=O)Nc1ccc2c(c1)COCCc1n[nH]c(C)c1-2)[C@H]1CC[C@H](C)CC1` [compound 10], the values for the IC50 in test [1] and in test [2] were 100 to 500 nM and at most 50 nM, respectively.

Turning to `Cc1[nH]nc2c1-c1cc(F)c(NC(=O)[C@@H](NC(=O)c3ccnn3CCN3CCOCC3)C(C3CC3)C3CC3)cc1COCC2` [compound 97], the IC50 fell in the range of 100 to 500 nM in test [1] and 50 to 150 nM in test [2].

With `CCn1nccc1C(=O)N[C@H](C(=O)Nc1cc2c(cc1F)-c1c(n[nH]c1C)CC(C)OC2)C(C1CC1)C1CC1` (single isomer, unassigned) [compound 119a], the IC50 in test [1] was 100 to 500 nM; in test [2] it was at most 50 nM.

In the case of `CCn1nccc1C(=O)N[C@H](C(=O)Nc1ccc2c(c1)COCCc1n[nH]c(C)c1-2)C1CCCCC1` [compound 8], the values for the IC50 in test [1] and in test [2] were 100 to 500 nM and 50 to 150 nM, respectively.

For `[2H]C([2H])([2H])n1nccc1C(=O)N[C@H](C(=O)Nc1ccc2c(c1)COCCc1n[nH]c(C)c1-2)C(C1CC1)C1CC1` [compound 7], the IC50 in test [1] was 100 to 500 nM; in test [2] it was 50 to 150 nM.

`Cc1[nH]nc2c1-c1cc(F)c(NC(=O)[C@@H](NC(=O)c3conc3C(C)C)C(C3CC3)C3CC3)cc1COCC2` [compound 35]: the IC50 is 100 to 500 nM in test [1] and at most 50 nM in test [2].

In the case of `Cc1[nH]nc2c1-c1cc(F)c(NC(=O)[C@@H](NC(=O)c3ccnn3C(C)C)[C@H]3CC[C@H](C)CC3)cc1COCC2` [compound 45], the IC50 in test [2] is at most 50 nM; in test [3], 100 to 500 nM.

In the case of `CCn1nccc1C(=O)N[C@H](C(=O)Nc1cc2c(cc1F)-c1c(n[nH]c1C)CCOC2)C1CCCCC1` [compound 49], the IC50 is at most 50 nM in test [2] and 100 to 500 nM in test [3].

For `Cc1[nH]nc2c1-c1cnc(NC(=O)[C@@H](NC(=O)c3ccnn3C(C)C)C(C3CC3)C3CC3)cc1CN(C1CCC1)C(=O)C2` [compound 197], the IC50 in test [2] was at most 50 nM; in test [3], at most 100 nM.

For `CCN1CCc2n[nH]c(C)c2-c2cc(F)c(NC(=O)[C@@H](NC(=O)c3ccnn3CC)C(C3CC3)C3CC3)cc2C1` [compound 157], the IC50 was at most 50 nM in test [2] and 100 to 500 nM in test [3].

With `Cc1[nH]nc2c1-c1cc(F)c(NC(=O)[C@@H](NC(=O)c3conc3C(C)C)C(C3CC3)C3CC3)cc1CN(CC(F)F)CC2` [compound 180], the IC50 in test [2] was at most 50 nM; in test [3] it was at most 100 nM.

`COCCN1Cc2cc(NC(=O)[C@@H](NC(=O)c3ccnn3C3CC3)C(C3CC3)C3CC3)c(F)cc2-c2c(n[nH]c2C)CC1=O` [compound 139]: the IC50 in test [1] was 100 to 500 nM.
